Holding throughout (assay): Weeding effect in post-emergence stage
Holding throughout (format): in vivo
Conditions in all cases: active ingredient 2000 g/ha, 3 weeks after application, fresh weight control rate

One assay concerns Abutilon theophrasti. The text has this:
(§1) The activity level criteria for plant damage (i.e., growth control rate) are as follows:
(§2) The above growth control rates are fresh weight control rates.
(§3) Experiment on weeding effect in post-emergence stage: monocotyledonous and dicotyledonous weed seeds and major crop seeds (wheat, corn, rice, soybean, cotton, oilseed rape, millet, sorghum) were placed in plastic pots filled with soil, then covered with 0.5-2 cm of soil, allowed to grow in a good greenhouse environment. After 2 weeks of sowing, the test plants were treated in the 2-3 leaf stage. The tested compounds of the present invention were respectively dissolved in acetone at the dosage of 2000, 1000, 500, 250, 125 g/ha, then added with Tween 80 and 1.5 liter/ha of emulsifiable concentrate of methyl oleate as synergist, diluted with a certain amount of water to obtain a solution with a certain concentration, and sprayed with a spray tower onto the plants. After the application, the plants were cultured for 3 weeks in the greenhouse, and then the experimental results were listed in Table 1.

The next assay has as its system Chenopodium album.
Excerpt: as §1, §2, §3

Assay [1] deals with Amaranthus retroflexus L.
Excerpt: as §1, §2, §3

A further assay deals with Descurainia sophia.
Excerpt: as §1, §2, §3

In the case of `Cn1nnnc1NC(=O)c1ccnc(-c2ccc(Br)cc2)c1Cl` [Compound 1-22], the “Weeding effect, activity level (growth control rate), Abutilon theophrasti” value (“Weeding effect … Abutilon theophrasti” for short) in the assay on Abutilon theophrasti is 5 (Level 5: growth control rate is above 85%). For the same compound, the “Weeding effect, activity level (growth control rate), Chenopodium album” value (from here on “Weeding effect … Chenopodium album”) in the assay on Chenopodium album is listed as 5 (Level 5: growth control rate is above 85%). Further, the “Weeding effect, activity level (growth control rate), Amaranthus retroflexus L.” value (shortened to “Weeding effect … Amaranthus retroflexus L.”) in assay [1] is reported as 5 (Level 5: growth control rate is above 85%). The “Weeding effect, activity level (growth control rate), Descurainia sophia” value (“Weeding effect … Descurainia sophia” below) with Descurainia sophia is given as 5 (Level 5: growth control rate is above 85%).
As to `Cn1nnnc1NC(=O)c1ccnc(-c2ccccc2CBr)c1Cl` [Compound 1-23], the “Weeding effect … Abutilon theophrasti” value in the assay on Abutilon theophrasti is given as 5 (Level 5: growth control rate is above 85%). Further, in the assay with Chenopodium album, the “Weeding effect … Chenopodium album” value is recorded as 5 (Level 5: growth control rate is above 85%). The “Weeding effect … Amaranthus retroflexus L.” value in assay [1] was 5 (Level 5: growth control rate is above 85%). Besides, the “Weeding effect … Descurainia sophia” value in the assay on Descurainia sophia is 5 (Level 5: growth control rate is above 85%).
On to `Cn1nnnc1NC(=O)c1ccnc(-c2ccc(CBr)cc2)c1Cl` [Compound 1-24], for which, in the assay on Abutilon theophrasti, the “Weeding effect … Abutilon theophrasti” value was 5 (Level 5: growth control rate is above 85%). In addition, in the assay on Chenopodium album, the “Weeding effect … Chenopodium album” value is reported as 5 (Level 5: growth control rate is above 85%). In assay [1], the “Weeding effect … Amaranthus retroflexus L.” value is on record as 5 (Level 5: growth control rate is above 85%). The “Weeding effect … Descurainia sophia” value in the assay with Descurainia sophia is on record as 5 (Level 5: growth control rate is above 85%).
`Cn1nnnc1NC(=O)c1ccnc(-c2ccc(I)cc2)c1Cl` [Compound 1-25]: the “Weeding effect … Abutilon theophrasti” value in the assay on Abutilon theophrasti is listed as 5 (Level 5: growth control rate is above 85%). In addition, the “Weeding effect … Chenopodium album” value in the assay on Chenopodium album was 5 (Level 5: growth control rate is above 85%). Also, the “Weeding effect … Amaranthus retroflexus L.” value in assay [1] is on record as 5 (Level 5: growth control rate is above 85%). In addition, the “Weeding effect … Descurainia sophia” value with Descurainia sophia is 5 (Level 5: growth control rate is above 85%).
For the compound `Cn1nnnc1NC(=O)c1ccnc(-c2cccc(C(F)(F)F)c2)c1Cl` [Compound 1-26], the “Weeding effect … Abutilon theophrasti” value in the assay on Abutilon theophrasti is reported as 5 (Level 5: growth control rate is above 85%). Further, the “Weeding effect … Chenopodium album” value in the assay with Chenopodium album is recorded as 5 (Level 5: growth control rate is above 85%). Further, in assay [1], the “Weeding effect … Amaranthus retroflexus L.” value is 5 (Level 5: growth control rate is above 85%). Also, the “Weeding effect … Descurainia sophia” value with Descurainia sophia is 5 (Level 5: growth control rate is above 85%).
For `Cn1nnnc1NC(=O)c1ccnc(-c2ccc(C(F)(F)F)cc2)c1Cl` [Compound 1-27], in the assay on Abutilon theophrasti, the “Weeding effect … Abutilon theophrasti” value is listed as 5 (Level 5: growth control rate is above 85%). Moreover, the “Weeding effect … Chenopodium album” value in the assay with Chenopodium album was 5 (Level 5: growth control rate is above 85%). Further, in assay [1], the “Weeding effect … Amaranthus retroflexus L.” value is given as 5 (Level 5: growth control rate is above 85%). For the same compound, the “Weeding effect … Descurainia sophia” value in the assay on Descurainia sophia is listed as 5 (Level 5: growth control rate is above 85%).
For `COc1ccccc1-c1nccc(C(=O)Nc2nnnn2C)c1Cl` [Compound 1-28], the “Weeding effect … Abutilon theophrasti” value with Abutilon theophrasti is reported as 5 (Level 5: growth control rate is above 85%). Besides, in the assay with Chenopodium album, the “Weeding effect … Chenopodium album” value was 5 (Level 5: growth control rate is above 85%). For the same compound, the “Weeding effect … Amaranthus retroflexus L.” value in assay [1] is reported as 5 (Level 5: growth control rate is above 85%). For the same compound, the “Weeding effect … Descurainia sophia” value in the assay on Descurainia sophia is given as 5 (Level 5: growth control rate is above 85%).
In the case of `COc1cccc(-c2nccc(C(=O)Nc3nnnn3C)c2Cl)c1` [Compound 1-29], the “Weeding effect … Abutilon theophrasti” value in the assay with Abutilon theophrasti is listed as 5 (Level 5: growth control rate is above 85%). Further, in the assay on Chenopodium album, the “Weeding effect … Chenopodium album” value is listed as 5 (Level 5: growth control rate is above 85%). Moreover, in assay [1], the “Weeding effect … Amaranthus retroflexus L.” value was 5 (Level 5: growth control rate is above 85%). Also, the “Weeding effect … Descurainia sophia” value in the assay on Descurainia sophia is reported as 5 (Level 5: growth control rate is above 85%).

The values are drawn from US12497365B2, “4-pyridinyl formamide compound or derivative thereof, preparation method therefor, herbicidal composition and use thereof” (Qingdao Kingagroot Chemical Compound Co., Ltd., priority 2019, dated 2025).
